The test system of test [1] is BXSB-Yaa mice. The test is described as follows: BXSB-Yaa strain lupus disease model. It is filed as in vivo, mouse. The note with it: for proteinuria: UACR; for Grade 3/4 nephritis onset: kidney histopathology. Here is the method:
Figure Legend: Twelve week old BXSB-Yaa mice were randomized into groups with equivalent median anti-dsDNA titers and treated once-a-day orally with Vehicle (Veh; 0.5% methyl-cellulose) alone or 300 mg/kg ER-892887 for 14 weeks total. (A) All mice were sacrificed at 26 weeks of age and final anti-dsDNA, anti-Sm/nRNP, and anti-RiboP titers were evaluated by ELISA as compared to titers observed in 6 wk old pre-diseased mice. (B) Approximately one week prior to sacrifice (25 weeks of age, 13 weeks of treatment), mice were housed 1-2 per cage in metabolic cages for 18 hours to collect urine, and the Urinary Albumin Creatinine Ratio (UACR, proteinuria) was determined for each animal as an indirect measure of kidney function. (C) At the time of sacrifice, kidneys were collected from individual mice, fixed in 10% formalin for 24 hours, embedded in paraffin, and H&E stained sections were generated for histopathology assessment in a blinded fashion. (D) Summary of mortality observed in the SLE-8 study. Statistical significance was determined by Mann-Whitney test for (A).
Figure Legend: Nine week old male BXSB-Yaa mice were treated once-a-day orally with Vehicle (Veh; 0.5% methyl-cellulose) alone or 100 mg/kg or 300 mg/kg ER-885454 for 15 weeks total. All mice were sacrificed at 24 weeks of age and final anti-dsDNA (A) and anti-Sm/RNP (B) titers were evaluated by ELISA. (C) Approximately one week prior to sacrifice, mice were housed 1-2 per cage in metabolic cages for 18 hours to collect urine, and the Urinary Albumin Creatinine Ratio (UACR, proteinuria) was determined for each animal as an indirect measure of kidney function. (D) At the time of sacrifice, kidneys were collected from individual mice, fixed in 10% formalin for 24 hours, embedded in paraffin, and H&E stained sections were generated for histopathology assessment in a blinded fashion. Statistical significance was determined by Mann-Whitney test for (A), (B), and (C) above.
Figure Legend: Seventeen week old BXSB-Yaa mice were randomized into two groups with equivalent median anti-dsDNA titers and treated once-a-day orally with Vehicle (Veh; 0.5% methyl-cellulose) alone or 300 mg/kg ER-885454 for 13 weeks total. All mice were sacrificed at 30 weeks of age and final anti-dsDNA (A) and anti-Sm/RNP (B) titers were evaluated by ELISA as compared to titers observed in 7 wk old pre-diseased mice. (C) Approximately one week prior to sacrifice, mice were housed 1-2 per cage in metabolic cages for 18 hours to collect urine, and the Urinary Albumin Creatinine Ratio (UACR, proteinuria) was determined for each animal as an indirect measure of kidney function. (D) At the time of sacrifice, kidneys were collected from individual mice, fixed in 10% formalin for 24 hours, embedded in paraffin, and H&E stained sections were generated for histopathology assessment in a blinded fashion. Statistical significance was determined by Mann-Whitney test for (A), (B), and (C) above.
(§1) Male BXSB-Yaa and female NZBWF1/J mice were purchased from Jackson Labs (Bar Harbor, Me.), both of which manifest with spontaneous lupus disease. Female DBA/1 mice were purchased from Harlan Laboratories (Indianapolis, Ind.) and at the indicated ages given an intraperitoneal injection of 0.5 ml pristane (2,6,10,14-Tetramethylpentadecane; Sigma, St. Louis, Mo.) to chemically induce lupus disease or of 0.5 ml PBS to generate age-matched, non-diseased control mice. Mice were dosed daily by oral administration of compound or drug in 0.5% methylcellulose, for the time period indicated.
Anti-dsDNA, -Sm/nRNP, -RiboP, and Histone titers were evaluated by standard ELISA approach. Briefly, 96-well EIA/RIA ELISA plates (Corning) were coated with 100 ul of diluted antigen in PBS for 90 minutes at room temperature as follows (final concentrations indicated): 10 U/ml Sm/nRNP complex (Immunovision), 10 ug/ml calf thymus dsDNA (Sigma), 5 U/ml RiboP (Immunovision), and 5 ug/ml Histone (Immunovision). […]

Test [2] concerns mouse lupus disease models. Description: SLE disease models, summary of findings. It is filed as in vivo. The note with it: summary over lupus models. Here is the method:
as §1

Each structure is given as a SMILES string.

In the case of `COc1ccc([C@@H]2C[C@H](C(F)(F)F)n3nc(-c4ccncc4)cc3N2)cc1OC` [ER-885454], in test [1], the proteinuria entry is given as “significantly reduced proteinuria” and the “Grade 3/4 nephritis onset” value is “complete prevention”. For the same molecule, in test [1] (once-a-day oral), the anti-Sm/nRNP titers entry was “significantly reduced” and the anti-dsDNA titers entry was “significantly reduced”. Moreover, in test [2], the “kidney disease as manifested by proteinuria and histologic changes” value was “suppressed”; the “production of several autoantibody specificities” value is “limited”.
As to `COc1ccc([C@@H]2C[C@H](C(F)(F)F)n3nc(-c4ccc(C(=O)N5CCNCC5)cc4)cc3N2)cc1OC` [ER-892887, (4-((5S,7R)-5-(3,4-dimethoxyphenyl)-7-(trifluoromethyl)-4,5,6,7-tetrahydropyrazolo[1,5-a]pyrimidin-2-yl)phenyl)(piperazin-1-yl)methanone], in test [1], the proteinuria result is given as “trend towards reduced proteinuria” and the “Grade 3/4 nephritis onset” value is “complete prevention”. In test [1] (once-a-day oral), the anti-dsDNA titers entry is reported as “significantly reduced”. In test [2], the “kidney disease as manifested by proteinuria and histologic changes” value is on record as “suppressed”; the “production of several autoantibody specificities” value was “limited”.

The record behind these values is patent publication US9126999B2, “Tetrahydropyrazolopyrimidine compounds” (EISAI R&D MANAGEMENT CO., LTD., priority 2012, dated 2015).
